Test results taken from USRE47740E1, “Aminopyridinecarboxamides as CXCR2 modulators” (Syntrix Biosystems Inc., priority 2010, dated 2019).
Like-named read-outs stand apart in the source and are kept apart here.

Target: CXCR2 (Homo sapiens (Human), UniProt P25025)
Experiment: Inhibition of CXCR2-mediated (GROα-induced) intracellular calcium release in human neutrophils (whole cell assay, Pharmacology Example 1)
Type: cell-based
Settings: GROα 25 nM
Experimental: Briefly, human neutrophils were suspended in HBSS^− (without Ca^2+ and Mg^2+) containing 10 mM HEPES and FLIPR Calcium 3 dye (3.1×10^7 cells in total volume 1.7 mL). Cells were aliquoted (200 μL of the cell suspension per tube, 8 tubes total) and 2 μL of compound 9 (with appropriate dilutions) were added to each of 6 tubes. The tested concentrations of compound 9 were 156 nM, 312 nM, 625 nM, 1250 nM, 2500 nM and 5000 nM. As controls, 2 μL of DMSO (1% final concentration) were added to 2 other tubes. Cells were incubated for 30 min at 37° C. After dye loading, tubes were centrifuged at 6,000 rpm for 1 min, supernatant was removed and the cell pellet was re-suspended in 200 μL of HBSS^+ (with Ca^2+ and Mg^2+) containing 10 mM HEPES. The test compound or DMSO (control) was added again at the same concentrations that were used during cell loading. The cell suspension was aliquoted into a 96-well Reading Plate (Corning) in a volume of 90 μL (10^5 cells/well). The Compound Plate contained agonist (GROα in HBSS^−) or HBSS^− (control). After 15 sec of reading the basal level of fluorescence by FlexStation II, 10 μL of GROα or HBSS^− were automatically transferred from the Compound Plate into the Reading Plate (final concentration of GROα was 25 nM). Changes in fluorescence were monitored (λex=485 nm, λem=525 nm) every 5 s for 240 to 500 s at room temperature.
The maximum change in fluorescence, expressed in arbitrary units over baseline (Max-Min), was used to determine the GROα response. The effect of each compound on the GROα response was normalized and expressed as a percent of the DMSO control, which was designated as “100% response.” Curve fitting and calculation of the compound inhibitory concentration that reduces the level of the GROα response by 50% (IC50), or the compound agonist concentration that increases the level of the calcium release by 50% of the maximum agonist-induced change (EC50) were determined by nonlinear regression analysis of the dose-response curves generated using Prism 4 (GraphPad Software, Inc., San Diego, Calif.).

[1] = FLIPR Calcium 3 dye, read-out: Inhibition of CXCR2 IC50
[2] = value in synthesis example, read-out: IC50 in whole cell assay (Pharmacology Example 1)

Sequence of CXCR2 (P25025 whole entry): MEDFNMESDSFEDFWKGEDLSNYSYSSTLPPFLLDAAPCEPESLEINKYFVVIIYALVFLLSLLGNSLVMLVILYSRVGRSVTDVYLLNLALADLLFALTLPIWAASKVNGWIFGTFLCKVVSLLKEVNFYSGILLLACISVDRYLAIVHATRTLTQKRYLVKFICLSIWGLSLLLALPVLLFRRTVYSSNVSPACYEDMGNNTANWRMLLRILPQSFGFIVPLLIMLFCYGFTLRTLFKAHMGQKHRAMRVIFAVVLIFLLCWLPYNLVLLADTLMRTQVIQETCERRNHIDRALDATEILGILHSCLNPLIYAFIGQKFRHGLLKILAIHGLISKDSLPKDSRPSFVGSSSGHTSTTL

| SMILES | IC50 [1] [nM] | IC50 [2] [nM] | IC50 (read-out: IC50, inhibition of CXCR2-mediated intracellular calcium release) [nM] |
| --- | --- | --- | --- |
| CN(Cc1ccccc1B(O)O)c1ccc(C(=O)Nc2ccc(F)cc2)cn1 [Compound 8] | 1000 ± 200 | 3700 ± 600 | – |
| CN(Cc1ccccc1O)c1ccc(C(=O)Nc2ccc(F)cc2)cn1 [Compound 9] | 586 ± 910 | 590 ± 90 | 586 ± 91 |
| O=C(Nc1ccc(F)cc1)c1ccc(NCc2ccccc2B(O)O)nc1 [Compound 10] | 1700 ± 200 | 1700 ± 200 | – |
| CN(Cc1ccc(B(O)O)cc1)c1ccc(C(=O)Nc2ccc(F)cc2)cn1 [Compound 18] | 247 ± 350 | 247 ± 35 | – |
| CN(Cc1ccc(B(O)O)cc1)c1ncc(C(=O)Nc2ccc(F)cc2)cn1 [Compound 19] | 244 ± 150 | 244 ± 15 | – |
